Converted amounts (≈) assume the structure as drawn. The source made the active and inactive calls. No cut-off for these calls is given here.
Experiments:
[1] = Cytotoxicity against African green monkey Vero cells assessed as reduction in cell viability after 24 hrs by microscopic method; assay type: cell-based; conditions: chlorocebus sabaeus
[2] = test system: Tick-borne encephalitis virus; assay: Antiviral activity against TBEV Absettarov infected in PEK cells assessed as plaque reduction preincubated for 1 hr followed by overlaying with 1.26% methylcellulose and measured after 6 days by gentian violet staining-based assay; assay type: functional, organism-based
[3] = Cytotoxicity against African green monkey Vero cells assessed as reduction in cell viability after 7 days by microscopic method; assay type: cell-based; conditions: chlorocebus sabaeus
[4] = Cytotoxicity against PEK cells assessed as reduction in cell viability after 24 hrs by microscopic method; assay type: cell-based, Sus scrofa; conditions: pig
[5] = Cytotoxicity against PEK cells assessed as reduction in cell viability after 7 days by microscopic method; assay type: cell-based, Sus scrofa; conditions: pig
[6] = Cytotoxicity against human RD cells assessed as reduction in cell viability after 24 hrs by microscopic method; assay type: cell-based
[7] = Cytotoxicity against human RD cells assessed as reduction in cell viability after 7 days by microscopic method; assay type: cell-based
Enterovirus A71 = assay: Antiviral activity against Enterovirus A71 isolate 46973 infected in human RD cells assessed as reduction in virus induced cytopathic effect preincubated with viral suspension for 1 hr followed by cell addition measured after 5 to 7 days; assay type: functional, organism-based
[8] = Solubility of compound in 15% DMSO by spectrophotometric analysis; assay type: physicochemical
[9] = Cytotoxicity against PEK cells assessed as formation of syncytium-like patterns of cells at 50 uM after 7 days by microscopic method; assay type: cell-based, Sus scrofa; conditions: pig, 168 h
Vero [10] = assay: Cytotoxicity against African green monkey Vero cells assessed as formation of syncytium-like patterns of cells at 50 uM after 7 days by microscopic method; assay type: cell-based; conditions: chlorocebus sabaeus, 168 h
RD [11] = assay: Cytotoxicity against human RD cells assessed as formation of syncytium-like patterns of cells at 50 uM after 7 days by microscopic method; assay type: cell-based; conditions: 168 h
Poliovirus 1 = assay: Antiviral activity against poliovirus type 1 sabin 1; assay type: functional, organism-based
Echovirus = assay: Antiviral activity against Echovirus 30 isolate 48461; assay type: functional, organism-based
Human alphaherpesvirus 1 = assay: Antiviral activity against HSV-1 infected in African green monkey Vero cells preincubated with virus for 5 mins; assay type: functional, organism-based; conditions: Human alphaherpesvirus 1, Vero
Human alphaherpesvirus 2 = assay: Antiviral activity against HSV-2 infected in African green monkey Vero cells assessed as plaque reduction preincubated for 10 mins inocula removed after 1 hr followed by overlaying with 2% methylcellulose and measured after 1 to 2 days by crystal violet staining based assay; assay type: functional, organism-based; conditions: Human alphaherpesvirus 2, Vero
Sindbis virus = assay: Antiviral activity against Sindbis virus infected in African green monkey Vero cells assessed as plaque reduction preincubated for 10 mins inocula removed after 1 hr followed by overlaying with 2% methylcellulose and measured after 1 to 2 days by crystal violet staining based assay; assay type: functional, organism-based
Hepatitis C virus = assay: Antiviral activity against HCV JFH1 infected in human Huh7.5 cells assessed as NS3 expression by western blot analysis; assay type: functional, organism-based, Hepacivirus hominis; conditions: JFH1, Huh7.5
[12] = test system: Vesicular stomatitis virus; assay: Antiviral activity against VSV infected in African green monkey Vero cells assessed as plaque reduction preincubated for 10 mins inocula removed after 1 hr followed by overlaying with 2% methylcellulose and measured after 1 to 2 days by crystal violet staining based assay; assay type: functional, organism-based
Influenza A virus [13] = assay: Antiviral activity against influenza A virus H1N1 infected in dog MDCK cells assessed as plaque reduction preincubated for 10 mins inocula removed after 1 hr followed by overlaying with 0.8% agarose and measured after 1 to 2 days by crystal violet staining based assay; assay type: functional, organism-based
Influenza A virus [14] = assay: Antiviral activity against influenza A virus H3N2 infected in dog MDCK cells assessed as plaque reduction preincubated for 10 mins inocula removed after 1 hr followed by overlaying with 0.8% agarose and measured after 1 to 2 days by crystal violet staining based assay; assay type: functional, organism-based
[15] = Selectivity index, ratio of CC50 for African green monkey Vero cells to EC50 for VSV infected in Vero cells; assay type: toxicity, cell-based; conditions: read-out: Ratio CC50/EC50
Murid betaherpesvirus 1 = assay: Antiviral activity against mCMV infected in mouse NIH3T3 cells assessed as reduction in virus induced cytopathogenicity; assay type: functional, organism-based; conditions: Murid betaherpesvirus 1, NIH3T3
[16] = Selectivity index, ratio of CC50 for human Huh7.5 cells to EC50 for HCV JFH1 infected in Huh7.5 cells; assay type: toxicity, cell-based; conditions: read-out: Ratio CC50/EC50
[17] = Selectivity index, ratio of CC50 for African green monkey Vero cells to EC50 for Sindbis infected in Vero cells; assay type: toxicity, cell-based; conditions: read-out: Ratio CC50/EC50
[18] = Selectivity index, ratio of CC50 for African green monkey Vero cells to EC50 for HSV-1 infected in Vero cells; assay type: toxicity, cell-based; conditions: read-out: Ratio CC50/EC50
[19] = Selectivity index, ratio of CC50 for African green monkey Vero cells to EC50 for HSV-2 infected in Vero cells; assay type: toxicity, cell-based; conditions: read-out: Ratio CC50/EC50
[20] = Selectivity index, ratio of CC50 for MDCK cells to EC50 for H1N1 infected in MDCK cells; assay type: toxicity, cell-based; conditions: dog, read-out: Ratio CC50/EC50
[21] = Selectivity index, ratio of CC50 for MDCK cells to EC50 for H3N2 infected in MDCK cells; assay type: toxicity, cell-based; conditions: dog, read-out: Ratio CC50/EC50
[22] = Selectivity index, ratio of CC50 for mouse NIH3T3 cells to EC50 for mCMV infected in NIH3T3 cells; assay type: toxicity, cell-based; conditions: read-out: Ratio CC50/EC50
[23] = Cytotoxicity against PEK cells assessed as reduction in metabolic activity at >20 uM after 24 hrs by CellTiter-Blue assay; assay type: ADME, cell-based, Sus scrofa; conditions: pig
Vero [24] = assay: Cytotoxicity against African green monkey Vero cells assessed as reduction in metabolic activity at >20 uM after 24 hrs by CellTiter-Blue assay; assay type: ADME, cell-based; conditions: chlorocebus sabaeus
RD [25] = assay: Cytotoxicity against human RD cells assessed as reduction in metabolic activity at >20 uM after 24 hrs by CellTiter-Blue assay; assay type: ADME, cell-based
[26] = Enterovirus A, isolate 46973, RD, read-out: EC50

| SMILES | CC50 at 24 h [1] | EC50 [2] | CC50 at 168 h [3] | CC50 at 24 h [4] | CC50 at 168 h [5] | CC50 at 24 h [6] | CC50 at 168 h [7] | EC50 (Enterovirus A71) | Activity [9] | Activity (Vero [10]) | Activity (RD [11]) | Activity (Poliovirus 1) | Activity (Echovirus) | other results |
| --- | --- | --- | --- | --- | --- | --- | --- | --- | --- | --- | --- | --- | --- | --- |
| CC(C)(C)C(=O)OCn1c(=O)c(C#Cc2ccc3c4cccc5cccc(c6cccc2c63)c54)cn(CC(=O)NCCCO)c1=O | 38 µM | 0.43 nM | > 50 µM | > 50 µM | > 50 µM | 19 µM | 10 µM | Not Active | Toxic | Toxic | Toxic | inactive | inactive | solubility [8]: 49 µM (≈ 30.2 µg/mL) |
| O=c1[nH]c(=O)n([C@@H]2O[C@H](CO)[C@@H](O)[C@@H]2O)cc1C#Cc1ccc2c3cccc4cccc(c5cccc1c52)c43 | – | 21 nM | – | > 50 µM | > 50 µM | – | – | – | Toxic | Toxic | Toxic | inactive | inactive | EC50 (Human alphaherpesvirus 1): 2 to 283 nM; EC50 (Human alphaherpesvirus 2): 2 to 283 nM; EC50 (Sindbis virus): 2 to 283 nM; EC50 (Hepatitis C virus): 2 to 283 nM; EC50 [12]: 2 to 283 nM; EC50 (Influenza A virus [13]): 2 to 283 nM; EC50 (Influenza A virus [14]): 2 to 283 nM; selectivity ratio [15]: > 3000; EC50 (Murid betaherpesvirus 1): 2 to 283 nM; selectivity ratio [16]: > 3000; selectivity ratio [17]: > 3000; selectivity ratio [18]: > 3000; selectivity ratio [19]: > 3000; selectivity ratio [20]: > 3000; selectivity ratio [21]: > 3000; selectivity ratio [22]: > 3000 |
| O=C(Cn1cc(C#Cc2ccc3c4cccc5cccc(c6cccc2c63)c54)c(=O)[nH]c1=O)NCCCCO | > 50 µM | 20 nM | > 50 µM | > 50 µM | > 50 µM | 76 µM | 81 µM | – | Toxic | Toxic | Toxic | inactive | inactive | EC50 (Enterovirus A71; [26]): 56 µM; Activity [23]: Non-Toxic; Activity (Vero [24]): Non-Toxic; Activity (RD [25]): Toxic |
| O=c1[nH]c(=O)n([C@H]2C[C@H](O)[C@@H](CO)O2)cc1C#Cc1ccc2c3cccc4cccc(c5cccc1c52)c43 | – | – | – | – | – | – | – | – | – | – | – | – | – | EC50 (Human alphaherpesvirus 1): 48 nM; EC50 (Human alphaherpesvirus 2): 2 to 283 nM; EC50 (Sindbis virus): 2 to 283 nM; EC50 (Hepatitis C virus): 2 to 283 nM; EC50 [12]: 2 to 283 nM; EC50 (Influenza A virus [13]): 2 to 283 nM; EC50 (Influenza A virus [14]): 2 to 283 nM; selectivity ratio [15]: > 3000; EC50 (Murid betaherpesvirus 1): 2 to 283 nM; selectivity ratio [16]: > 3000; selectivity ratio [17]: > 3000; selectivity ratio [18]: > 3000; selectivity ratio [19]: > 3000; selectivity ratio [20]: > 3000; selectivity ratio [21]: > 3000; selectivity ratio [22]: > 3000 |
| CC(C)(C)C(=O)OCn1c(=O)c(C#Cc2ccc3c4cccc5cccc(c6cccc2c63)c54)cn(CC(=O)NCCO)c1=O | 32 µM | 2.1 nM | 38 µM | > 50 µM | > 50 µM | 19 µM | 38 µM | Not Active | Toxic | Toxic | Toxic | inactive | inactive | – |
| CC(C)(CO)[C@@H](O)CNC(=O)Cn1cc(C#Cc2ccc3c4cccc5cccc(c6cccc2c63)c54)c(=O)[nH]c1=O | 38 µM | 19 nM | > 50 µM | > 50 µM | > 50 µM | 76 µM | 76 µM | – | Toxic | Toxic | Toxic | inactive | inactive | EC50 (Enterovirus A71; [26]): 108 µM; Activity [23]: Non-Toxic; Activity (Vero [24]): Non-Toxic; Activity (RD [25]): Toxic |
| O=C(Cn1cc(C#Cc2ccc3c4cccc5cccc(c6cccc2c63)c54)c(=O)[nH]c1=O)NCCCCCO | > 50 µM | 77 nM | > 50 µM | > 50 µM | > 50 µM | > 104 µM | > 104 µM | Not Active | Toxic | Toxic | Toxic | inactive | inactive | – |
